Measured values: article PMC9288506, “Compounds activating VCP D1 ATPase enhance both autophagic and proteasomal neurotoxic protein clearance” (Nature Communications, 2022)

Columns and labels:
[1] = molecular target: T1, VCP (p97, Valosin-containing protein) (Homo sapiens, UniProt P55072); test: SPR (also DARTS, LiP-MS, competition pulldown, ATPase activation); assay type: binding
T1 construct: Full-length VCP (6xHis-tag)

[2] = molecular target: ABL1 (Homo sapiens, UniProt P00519); test: biochemical; set-up: Thermo Fisher in vitro kinase panel, per cent inhibition of kinase activity at 10 uM
Protocol: (§1) Kinase profiling of SMER28 and analogs SMER28 and analogs were tested at 10 µM in a panel of 123 kinases at ThermoFisher Scientific. Follow-up of selected kinases for SMER28 and analogs was also performed at ThermoFisher Scientific. Data are shown in Supplementary Data 2 and 3. […] An inhibition of PIK3C could induce autophagy, mediated by signaling through the AKT/mTOR axis[45].

[3] = molecular target: AURKC (Aurora C) (Homo sapiens, UniProt Q9UQB9); test: biochemical; set-up: Thermo Fisher in vitro kinase panel, per cent inhibition of kinase activity at 10 uM
Protocol: as §1

[4] = molecular target: BTK (Homo sapiens, UniProt Q06187); test: biochemical; set-up: Thermo Fisher in vitro kinase panel, per cent inhibition of kinase activity at 10 uM
Protocol: as §1

[5] = molecular target: T2, DNA-PK (Homo sapiens, UniProt P78527); test: biochemical; set-up: Thermo Fisher in vitro kinase panel, per cent inhibition of kinase activity at 10 uM
T2 construct: gene PRKDC
Protocol: as §1

[6] = molecular target: DYRK2 (Homo sapiens, UniProt Q92630); test: biochemical; set-up: Thermo Fisher in vitro kinase panel, per cent inhibition of kinase activity at 10 uM
Protocol: as §1

[7] = molecular target: GSK3A (GSK3 alpha) (Homo sapiens, UniProt P49840); test: biochemical; set-up: Thermo Fisher in vitro kinase panel, per cent inhibition of kinase activity at 10 uM
Protocol: as §1

[8] = molecular target: GSK3B (GSK3 beta) (Homo sapiens, UniProt P49841); test: biochemical; set-up: Thermo Fisher in vitro kinase panel, per cent inhibition of kinase activity at 10 uM
Protocol: as §1

[9] = molecular target: JAK2 (Homo sapiens, UniProt O60674); test: biochemical; set-up: Thermo Fisher in vitro kinase panel, per cent inhibition of kinase activity at 10 uM
Protocol: as §1

[10] = molecular target: JAK3 (Homo sapiens, UniProt P52333); test: biochemical; set-up: Thermo Fisher in vitro kinase panel, per cent inhibition of kinase activity at 10 uM
Protocol: as §1

[11] = molecular target: KIT (Homo sapiens, UniProt P10721); test: biochemical; set-up: Thermo Fisher in vitro kinase panel, per cent inhibition of kinase activity at 10 uM
Protocol: as §1

[12] = molecular target: MAP3K7/MAP3K7IP1 (TAK1-TAB1) (Homo sapiens, UniProt O43318); test: biochemical; set-up: Thermo Fisher in vitro kinase panel, per cent inhibition of kinase activity at 10 uM
Protocol: as §1

[13] = molecular target: T3, MAPK14 (p38 alpha) Direct (Homo sapiens, UniProt Q16539); test: biochemical; set-up: Thermo Fisher in vitro kinase panel, per cent inhibition of kinase activity at 10 uM
T3 construct: Direct
Protocol: as §1

[14] = molecular target: MARK1 (MARK) (Homo sapiens, UniProt Q9P0L2); test: biochemical; set-up: Thermo Fisher in vitro kinase panel, per cent inhibition of kinase activity at 10 uM
Protocol: as §1

[15] = molecular target: MKNK2 (MNK2) (Homo sapiens, UniProt Q9HBH9); test: biochemical; set-up: Thermo Fisher in vitro kinase panel, per cent inhibition of kinase activity at 10 uM
Protocol: as §1

[16] = molecular target: MST1R (RON) (Homo sapiens, UniProt Q04912); test: biochemical; set-up: Thermo Fisher in vitro kinase panel, per cent inhibition of kinase activity at 10 uM
Protocol: as §1

[17] = molecular target: MYLK (MLCK) (Homo sapiens, UniProt Q15746); test: biochemical; set-up: Thermo Fisher in vitro kinase panel, per cent inhibition of kinase activity at 10 uM
Protocol: as §1

[18] = molecular target: PAK1 (Homo sapiens, UniProt Q13153); test: biochemical; set-up: Thermo Fisher in vitro kinase panel, per cent inhibition of kinase activity at 10 uM
Protocol: as §1

[19] = molecular target: T4, PDK1 (Homo sapiens, UniProt O15530); test: biochemical; set-up: Thermo Fisher in vitro kinase panel, per cent inhibition of kinase activity at 10 uM
T4 construct: gene PDPK1
Protocol: as §1

[20] = molecular target: PLK1 (Homo sapiens, UniProt P53350); test: biochemical; set-up: Thermo Fisher in vitro kinase panel, per cent inhibition of kinase activity at 10 uM
Protocol: as §1

[21] = molecular target: ROCK2 (Homo sapiens, UniProt O75116); test: biochemical; set-up: Thermo Fisher in vitro kinase panel, per cent inhibition of kinase activity at 10 uM
Protocol: as §1

[22] = molecular target: RPS6KA1 (RSK1) (Homo sapiens, UniProt Q15418); test: biochemical; set-up: Thermo Fisher in vitro kinase panel, per cent inhibition of kinase activity at 10 uM
Protocol: as §1

[23] = molecular target: RPS6KA5 (MSK1) (Homo sapiens, UniProt O75582); test: biochemical; set-up: Thermo Fisher in vitro kinase panel, per cent inhibition of kinase activity at 10 uM
Protocol: as §1

[24] = molecular target: RPS6KB1 (p70S6K) (Homo sapiens, UniProt P23443); test: biochemical; set-up: Thermo Fisher in vitro kinase panel, per cent inhibition of kinase activity at 10 uM
Protocol: as §1

[25] = molecular target: SRPK1 (Homo sapiens, UniProt Q96SB4); test: biochemical; set-up: Thermo Fisher in vitro kinase panel, per cent inhibition of kinase activity at 10 uM
Protocol: as §1

[26] = molecular target: SYK (Homo sapiens, UniProt P43405); test: biochemical; set-up: Thermo Fisher in vitro kinase panel, per cent inhibition of kinase activity at 10 uM
Protocol: as §1

JAK3, sequence (P52333 whole entry): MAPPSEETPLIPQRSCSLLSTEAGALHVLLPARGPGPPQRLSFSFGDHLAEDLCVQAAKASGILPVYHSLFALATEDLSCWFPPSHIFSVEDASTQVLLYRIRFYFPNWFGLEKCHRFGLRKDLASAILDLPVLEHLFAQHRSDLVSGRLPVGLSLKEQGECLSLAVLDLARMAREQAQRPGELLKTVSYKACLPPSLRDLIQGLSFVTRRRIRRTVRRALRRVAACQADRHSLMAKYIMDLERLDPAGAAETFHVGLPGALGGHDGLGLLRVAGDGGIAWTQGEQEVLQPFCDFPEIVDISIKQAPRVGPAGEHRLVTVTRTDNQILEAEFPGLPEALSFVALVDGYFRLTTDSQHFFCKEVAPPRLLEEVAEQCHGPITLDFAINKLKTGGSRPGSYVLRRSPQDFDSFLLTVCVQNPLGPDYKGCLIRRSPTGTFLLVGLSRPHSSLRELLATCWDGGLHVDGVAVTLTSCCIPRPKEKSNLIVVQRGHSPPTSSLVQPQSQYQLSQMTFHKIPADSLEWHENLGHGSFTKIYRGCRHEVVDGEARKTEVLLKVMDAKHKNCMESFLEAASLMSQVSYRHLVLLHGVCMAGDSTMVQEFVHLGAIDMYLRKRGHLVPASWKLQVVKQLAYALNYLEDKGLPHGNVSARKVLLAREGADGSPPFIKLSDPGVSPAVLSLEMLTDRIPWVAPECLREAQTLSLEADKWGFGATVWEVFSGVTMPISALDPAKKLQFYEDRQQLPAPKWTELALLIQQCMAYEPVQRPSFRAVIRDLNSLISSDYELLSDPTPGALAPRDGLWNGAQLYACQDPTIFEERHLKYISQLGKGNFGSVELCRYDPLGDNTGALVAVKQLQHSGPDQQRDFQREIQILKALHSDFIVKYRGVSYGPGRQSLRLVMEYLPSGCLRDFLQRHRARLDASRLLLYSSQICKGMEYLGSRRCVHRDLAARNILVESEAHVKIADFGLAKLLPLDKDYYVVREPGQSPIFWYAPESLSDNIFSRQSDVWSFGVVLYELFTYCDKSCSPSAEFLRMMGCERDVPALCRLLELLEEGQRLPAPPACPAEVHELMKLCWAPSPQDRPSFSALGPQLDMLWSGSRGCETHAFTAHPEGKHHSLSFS
MARK1 (MARK), sequence (Q9P0L2 whole entry): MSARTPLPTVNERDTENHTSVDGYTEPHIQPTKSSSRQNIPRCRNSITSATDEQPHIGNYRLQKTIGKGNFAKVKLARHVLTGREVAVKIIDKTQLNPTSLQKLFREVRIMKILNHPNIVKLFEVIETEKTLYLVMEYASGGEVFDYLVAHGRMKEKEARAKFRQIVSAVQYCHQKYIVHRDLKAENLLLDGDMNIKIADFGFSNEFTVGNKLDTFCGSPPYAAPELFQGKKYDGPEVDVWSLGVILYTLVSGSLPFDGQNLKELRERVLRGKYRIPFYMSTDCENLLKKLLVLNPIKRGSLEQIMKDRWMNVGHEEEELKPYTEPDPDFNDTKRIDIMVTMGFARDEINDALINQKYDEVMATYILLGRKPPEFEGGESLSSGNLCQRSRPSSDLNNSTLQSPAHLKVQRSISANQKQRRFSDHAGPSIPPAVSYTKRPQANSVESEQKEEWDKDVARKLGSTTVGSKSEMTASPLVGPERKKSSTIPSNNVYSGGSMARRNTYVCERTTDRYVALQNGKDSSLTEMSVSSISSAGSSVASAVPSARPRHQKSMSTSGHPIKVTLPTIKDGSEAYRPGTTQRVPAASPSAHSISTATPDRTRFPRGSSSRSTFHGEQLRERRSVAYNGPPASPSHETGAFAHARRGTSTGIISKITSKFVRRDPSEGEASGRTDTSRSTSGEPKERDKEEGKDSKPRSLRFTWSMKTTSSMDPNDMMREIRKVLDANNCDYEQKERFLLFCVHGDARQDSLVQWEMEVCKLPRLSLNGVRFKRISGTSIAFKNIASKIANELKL
SRPK1, sequence (Q96SB4 whole entry): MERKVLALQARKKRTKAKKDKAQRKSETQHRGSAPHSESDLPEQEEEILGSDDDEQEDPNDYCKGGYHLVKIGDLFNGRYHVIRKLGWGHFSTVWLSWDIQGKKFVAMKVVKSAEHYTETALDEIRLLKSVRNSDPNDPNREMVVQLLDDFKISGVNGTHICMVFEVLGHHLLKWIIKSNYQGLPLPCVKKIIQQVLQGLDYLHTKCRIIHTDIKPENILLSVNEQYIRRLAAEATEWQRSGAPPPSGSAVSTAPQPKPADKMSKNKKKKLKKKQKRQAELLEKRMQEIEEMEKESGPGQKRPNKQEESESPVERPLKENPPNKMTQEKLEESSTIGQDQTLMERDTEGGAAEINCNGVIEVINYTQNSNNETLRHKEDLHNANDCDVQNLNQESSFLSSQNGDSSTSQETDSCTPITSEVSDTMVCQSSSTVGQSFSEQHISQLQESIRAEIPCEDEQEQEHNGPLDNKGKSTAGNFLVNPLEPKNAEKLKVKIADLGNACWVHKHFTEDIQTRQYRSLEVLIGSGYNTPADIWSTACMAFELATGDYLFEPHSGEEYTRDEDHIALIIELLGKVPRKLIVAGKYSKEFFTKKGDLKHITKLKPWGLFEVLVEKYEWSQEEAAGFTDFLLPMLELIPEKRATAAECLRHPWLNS
JAK2, sequence (O60674 whole entry): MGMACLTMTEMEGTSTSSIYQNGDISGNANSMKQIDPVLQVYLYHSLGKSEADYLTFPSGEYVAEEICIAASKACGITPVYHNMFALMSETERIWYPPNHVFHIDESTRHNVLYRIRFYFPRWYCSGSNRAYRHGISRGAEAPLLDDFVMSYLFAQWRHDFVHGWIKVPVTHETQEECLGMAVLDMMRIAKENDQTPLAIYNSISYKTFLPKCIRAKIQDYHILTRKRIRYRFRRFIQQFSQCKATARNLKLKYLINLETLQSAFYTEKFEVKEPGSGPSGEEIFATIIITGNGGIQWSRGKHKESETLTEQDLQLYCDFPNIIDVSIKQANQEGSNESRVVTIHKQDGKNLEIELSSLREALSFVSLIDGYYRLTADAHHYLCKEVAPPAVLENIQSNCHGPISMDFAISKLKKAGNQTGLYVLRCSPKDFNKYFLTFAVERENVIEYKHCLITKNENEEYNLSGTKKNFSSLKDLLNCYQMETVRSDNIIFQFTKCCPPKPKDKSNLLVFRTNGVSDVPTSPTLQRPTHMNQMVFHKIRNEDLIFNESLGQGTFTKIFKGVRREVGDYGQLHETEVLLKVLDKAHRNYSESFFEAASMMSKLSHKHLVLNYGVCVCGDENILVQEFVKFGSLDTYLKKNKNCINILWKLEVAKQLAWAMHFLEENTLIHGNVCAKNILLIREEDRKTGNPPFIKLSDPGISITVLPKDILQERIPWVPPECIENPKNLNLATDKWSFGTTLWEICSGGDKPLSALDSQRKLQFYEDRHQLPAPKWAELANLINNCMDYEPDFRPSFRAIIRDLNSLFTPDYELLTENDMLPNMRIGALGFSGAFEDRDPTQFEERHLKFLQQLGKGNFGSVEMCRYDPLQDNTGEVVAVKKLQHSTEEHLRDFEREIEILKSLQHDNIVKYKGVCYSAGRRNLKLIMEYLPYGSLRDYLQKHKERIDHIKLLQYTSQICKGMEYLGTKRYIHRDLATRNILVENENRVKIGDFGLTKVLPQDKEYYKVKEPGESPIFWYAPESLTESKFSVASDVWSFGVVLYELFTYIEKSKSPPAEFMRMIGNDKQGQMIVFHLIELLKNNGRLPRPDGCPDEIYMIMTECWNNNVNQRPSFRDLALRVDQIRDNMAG
T3 sequence (Q16539 whole entry): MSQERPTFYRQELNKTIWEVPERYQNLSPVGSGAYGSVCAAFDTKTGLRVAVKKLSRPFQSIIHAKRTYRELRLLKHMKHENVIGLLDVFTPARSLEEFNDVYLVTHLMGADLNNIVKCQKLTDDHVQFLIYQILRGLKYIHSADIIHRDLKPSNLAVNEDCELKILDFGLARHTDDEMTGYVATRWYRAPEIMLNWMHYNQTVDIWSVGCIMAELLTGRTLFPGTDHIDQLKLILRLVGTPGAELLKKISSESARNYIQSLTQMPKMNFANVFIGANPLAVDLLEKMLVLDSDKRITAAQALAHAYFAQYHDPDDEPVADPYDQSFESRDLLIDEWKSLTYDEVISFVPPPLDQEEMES
RPS6KB1 (p70S6K), sequence (P23443 whole entry): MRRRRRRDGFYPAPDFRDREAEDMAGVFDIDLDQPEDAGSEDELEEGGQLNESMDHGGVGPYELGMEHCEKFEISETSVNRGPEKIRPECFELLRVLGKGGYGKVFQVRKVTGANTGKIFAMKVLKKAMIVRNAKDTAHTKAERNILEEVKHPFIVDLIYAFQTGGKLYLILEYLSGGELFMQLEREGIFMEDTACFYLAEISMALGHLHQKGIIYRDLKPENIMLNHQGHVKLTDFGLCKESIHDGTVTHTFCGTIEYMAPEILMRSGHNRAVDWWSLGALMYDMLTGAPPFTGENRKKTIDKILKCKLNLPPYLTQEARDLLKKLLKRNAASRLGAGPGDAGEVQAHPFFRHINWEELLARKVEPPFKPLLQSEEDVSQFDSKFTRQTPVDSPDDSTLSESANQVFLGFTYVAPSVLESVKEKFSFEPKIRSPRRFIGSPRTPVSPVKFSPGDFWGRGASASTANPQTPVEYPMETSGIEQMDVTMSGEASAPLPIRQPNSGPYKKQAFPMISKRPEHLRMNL
MKNK2 (MNK2), sequence (Q9HBH9 whole entry): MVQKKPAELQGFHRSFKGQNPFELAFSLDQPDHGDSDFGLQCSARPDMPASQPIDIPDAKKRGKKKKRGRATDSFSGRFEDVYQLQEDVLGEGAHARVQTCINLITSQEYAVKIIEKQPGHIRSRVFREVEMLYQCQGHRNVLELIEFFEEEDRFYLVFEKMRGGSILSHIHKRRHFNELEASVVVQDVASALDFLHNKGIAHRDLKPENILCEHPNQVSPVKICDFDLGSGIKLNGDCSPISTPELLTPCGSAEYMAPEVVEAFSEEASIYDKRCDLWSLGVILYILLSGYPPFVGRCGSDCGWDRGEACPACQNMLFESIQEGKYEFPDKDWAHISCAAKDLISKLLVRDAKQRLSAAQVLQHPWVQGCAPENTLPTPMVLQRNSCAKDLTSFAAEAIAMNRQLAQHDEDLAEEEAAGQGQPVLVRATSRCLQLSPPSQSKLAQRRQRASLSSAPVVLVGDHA

C=CCNc1ncnc2ccc(Br)cc12 [SMER28]
Kd [1]: ~750 nM | inhibition at 10 µM [2]: 11% | inhibition at 10 µM [3]: -6% | inhibition at 10 µM [4]: 8% | inhibition at 10 µM [5]: 37% | inhibition at 10 µM [6]: 67% | inhibition at 10 µM [7]: 23% | inhibition at 10 µM [8]: 24% | inhibition at 10 µM [9]: 3% | inhibition at 10 µM [10]: 14% | inhibition at 10 µM [11]: 25% | inhibition at 10 µM [12]: 34% | inhibition at 10 µM [13]: 7% | inhibition at 10 µM [14]: 11% | inhibition at 10 µM [15]: 32% | inhibition at 10 µM [16]: -4% | inhibition at 10 µM [17]: 12% | inhibition at 10 µM [18]: 0% | inhibition at 10 µM [19]: -7% | inhibition at 10 µM [20]: 11% | inhibition at 10 µM [21]: -5% | inhibition at 10 µM [22]: 21% | inhibition at 10 µM [23]: -3% | inhibition at 10 µM [24]: 22% | inhibition at 10 µM [25]: 5% | inhibition at 10 µM [26]: 8%
